Results reported in US11505784B2, “Cell culture medium” (BOEHRINGER INGELHEIM INTERNATIONAL GMBH, priority 2015, dated 2022).
Like-named read-outs stand apart in the source and are kept apart here.

What was measured:
[1] = test system: CHO2 (CHO-DG44) cells producing Rituximab; conditions: for product titer: feed medium 2 with 0.25 g/l iron citrate
Description: Cell concentrations and cell viabilities were determined by the trypan blue exclusion method using a CEDEX (Type 5.00, version 2.2) automated cell analyzer (Roche Innovatis, Bielefeld, Germany). The concentrations of produced recombinant proteins in the medium, such as IgG antibodies were quantified by a Konelab 60i (Thermo Scientific, Dreieich, Germany) analyzer based on photometrical methods or by the use of a HPLC method. The Konelab 60i instrument was also used for the quantification of metabolites such as glucose, lactic acid (lactate), glutamine, glutamate, and ammonium in the cell culture supernatants. Amino acid concentrations were determined by use of a GC 6890N/FID gas chromatograph (Agilent Technologies GmbH & Co.KG, Waldbronn, Germany). Amino acid analysis was performed by the EZ-faast protocol from Phenomenex (Aschaffenburg, Germany). Osmolarity profiles were analyzed by an osmomat auto device (Gonotec GmbH, Berlin, Germany). This method is based on the cryoscopic freezing point of a particular solution, which is proportional to the amount of dissolved particles. Dissolved carbon dioxide pCO2, dissolved oxygen pO2 and pH were determined on a daily basis with a Rapidlab 248/348 instrument (Siemens Healthcare Diagnostics GmbH, Eschborn, Germany).
The experiment was performed in 250 ml shake flasks with a starting volume of 60 ml.
Shake flasks were incubated at 37° C. in an incubator (10% CO2 atmosphere was provided from day 0 to 3 followed by 5% CO2 for one day and 0% CO2 until the end of the cultivation). Feeding solution was added every day at a feed rate of 30 ml/L/d starting on day two. Glucose was fed on demand to maintain the actual glucose concentration between 2-4 g/l over the cultivation period. Total cells, viable cells, viability, product concentration, glucose concentration, lactic acid concentration, ammonium concentration and osmolarity were measured every second day until the end of cultivation to monitor and control the experimental progress. Experiments were performed in duplicates (N=2).

[2] = test system: CHO2 (CHO-DG44) cells producing Rituximab; assay: Fed-batch shake flask comparison of iron carriers in basal medium 6.2a (Example 7); assay type: cell-based, Chinese hamster
Description: Basal medium 6.2a is a precursor medium that is almost identical to basal medium 6.2 except for additionally comprising some non-essential cofactors and nucleotides and containing no succinic acid, putrescine at only 4.8 mg/l and a total amino acid concentration of 40 mM instead of 44 mM. Further Glutamine was added at a lower amount resulting in a ratio relative to isoleucine of 37.42.
Feed medium 6.2a is a precursor medium that is almost identical to feed medium 6.2 except for additionally comprising some non-essential cofactors and nucleotides and slightly higher sodium bicarbonate and containing putrescine at only 33.02 mg/l and a total amino acid concentration of 511 mM instead of 508 mM. Further alanine was additionally present in the medium with a ratio relative to isoleucine of 0.15.
Experiments were performed in duplicates (N=2).

[3] = test system: CHO2 (CHO-DG44) Rituximab cells; conditions: 0.1 g/l (so in the source) in RPMI based basal medium 3.1; feed medium 2 with 0.25 g/l iron citrate; 2 L bioreactor
Description: Cell concentrations and cell viabilities were determined by the trypan blue exclusion method using a CEDEX (Type 5.00, version 2.2) automated cell analyzer (Roche Innovatis, Bielefeld, Germany). The concentrations of produced recombinant proteins in the medium, such as IgG antibodies were quantified by a Konelab 60i (Thermo Scientific, Dreieich, Germany) analyzer based on photometrical methods or by the use of a HPLC method. The Konelab 60i instrument was also used for the quantification of metabolites such as glucose, lactic acid (lactate), glutamine, glutamate, and ammonium in the cell culture supernatants. Amino acid concentrations were determined by use of a GC 6890N/FID gas chromatograph (Agilent Technologies GmbH & Co.KG, Waldbronn, Germany). Amino acid analysis was performed by the EZ-faast protocol from Phenomenex (Aschaffenburg, Germany). Osmolarity profiles were analyzed by an osmomat auto device (Gonotec GmbH, Berlin, Germany). This method is based on the cryoscopic freezing point of a particular solution, which is proportional to the amount of dissolved particles. Dissolved carbon dioxide pCO2, dissolved oxygen pO2 and pH were determined on a daily basis with a Rapidlab 248/348 instrument (Siemens Healthcare Diagnostics GmbH, Eschborn, Germany). […]

## C[N+](C)(C)CCO.O=C([O-])CC(O)(CC(=O)[O-])C(=O)[O-].[Fe+2] [iron choline citrate]
[1]; equimolar application, data not shown
  osmolarity of the culture compared to equimolar iron citrate (in words): lower osmolarity values

## O=P([O-])([O-])[O-].[Fe+3] [iron phosphate]
[2]; iron carrier 0.3 g/L in basal medium 6.2a, feed medium 6.2a without iron choline citrate
  product titer: 2.29 g/L

## O=P([O-])([O-])OP(=O)([O-])[O-].O=P([O-])([O-])OP(=O)([O-])[O-].O=P([O-])([O-])OP(=O)([O-])[O-].[Fe+3].[Fe+3].[Fe+3].[Fe+3] [iron pyro phosphate]
[2]; iron carrier 1.3 g/L in basal medium 6.2a, feed medium 6.2a without iron choline citrate
  product titer: 2.26 g/L

## iron citrate
[3]
  product titer: 0.200 g/L
[1]; 0.1 g/L in basal medium 3.1
  product titer: 0.184 g/L
[1]; 0.2 g/L in basal medium 3.1
  product titer: 0.200 g/L
[1]; 1.0 g/L in basal medium 3.1
  titer: 201 mg/L
  product titer: 0.201 g/L
[2]; parallel experiment: 0.1 g/L in basal medium 6.2a, feed medium 6.2a with 0.25 g/l iron citrate
  product titer: 2.38 g/L
